Experimental data as given in ChEMBL document CHEMBL5465560, “Selectivity Literature for EUbOPEN Chemogenomic Library” (2024).

How the values were obtained:
[1] = system: Epidermal growth factor receptor (Homo sapiens), P00533 [UNDEFINED MUTATION]; test: Selectivity interaction (ProQinase) EUB0000171b EGFR; details: at 5 µM
[2] = biological target: Ribosomal protein S6 kinase alpha-6 (Homo sapiens, UniProt Q9UK32); test: Selectivity interaction (Kinase screening (Nanosyn)) EUB0000604a RPS6KA6
[3] = biological target: Mast/stem cell growth factor receptor Kit (Homo sapiens, UniProt P10721); test: Selectivity interaction (Ambit KINOMEscan and KiNATiv profiling in Jurkat cells) EUB0000090b KIT; assay type: cell-based; details: at 1 µM
Mast/stem cell growth factor receptor Kit, sequence (P10721 whole entry): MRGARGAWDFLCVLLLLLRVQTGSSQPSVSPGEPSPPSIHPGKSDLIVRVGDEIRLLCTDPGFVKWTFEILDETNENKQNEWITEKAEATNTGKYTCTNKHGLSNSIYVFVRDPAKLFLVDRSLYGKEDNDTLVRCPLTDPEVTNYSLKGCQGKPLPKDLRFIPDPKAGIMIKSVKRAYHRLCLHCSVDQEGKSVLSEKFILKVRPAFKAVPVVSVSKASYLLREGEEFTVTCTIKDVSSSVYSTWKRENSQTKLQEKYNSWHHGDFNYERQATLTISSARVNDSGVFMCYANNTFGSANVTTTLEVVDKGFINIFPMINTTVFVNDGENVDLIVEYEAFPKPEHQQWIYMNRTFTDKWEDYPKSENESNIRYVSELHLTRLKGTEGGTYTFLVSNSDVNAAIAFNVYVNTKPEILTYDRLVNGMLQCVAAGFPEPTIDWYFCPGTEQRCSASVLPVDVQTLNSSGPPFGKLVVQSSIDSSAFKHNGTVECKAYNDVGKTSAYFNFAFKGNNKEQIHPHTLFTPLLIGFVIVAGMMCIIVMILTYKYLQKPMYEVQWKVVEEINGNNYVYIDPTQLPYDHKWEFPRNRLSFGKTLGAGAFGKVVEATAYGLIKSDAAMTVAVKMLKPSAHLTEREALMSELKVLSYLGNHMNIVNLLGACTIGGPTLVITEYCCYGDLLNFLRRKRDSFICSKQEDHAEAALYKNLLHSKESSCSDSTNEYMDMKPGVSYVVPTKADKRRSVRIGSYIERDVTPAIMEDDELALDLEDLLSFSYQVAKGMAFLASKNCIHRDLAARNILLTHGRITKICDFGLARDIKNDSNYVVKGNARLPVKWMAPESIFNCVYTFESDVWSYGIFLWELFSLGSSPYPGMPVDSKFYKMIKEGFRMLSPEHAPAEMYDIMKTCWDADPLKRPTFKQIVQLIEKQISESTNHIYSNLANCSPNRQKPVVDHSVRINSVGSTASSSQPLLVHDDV

[4] = biological target: Tyrosine-protein kinase CSK (Homo sapiens) (UniProt P41240); test: Selectivity interaction (KinomeScan (DiscoverX)) EUB0001079a CSK; details: at 1 µM
Tyrosine-protein kinase CSK (Homo sapiens), sequence (P41240 2-450 limits assumed): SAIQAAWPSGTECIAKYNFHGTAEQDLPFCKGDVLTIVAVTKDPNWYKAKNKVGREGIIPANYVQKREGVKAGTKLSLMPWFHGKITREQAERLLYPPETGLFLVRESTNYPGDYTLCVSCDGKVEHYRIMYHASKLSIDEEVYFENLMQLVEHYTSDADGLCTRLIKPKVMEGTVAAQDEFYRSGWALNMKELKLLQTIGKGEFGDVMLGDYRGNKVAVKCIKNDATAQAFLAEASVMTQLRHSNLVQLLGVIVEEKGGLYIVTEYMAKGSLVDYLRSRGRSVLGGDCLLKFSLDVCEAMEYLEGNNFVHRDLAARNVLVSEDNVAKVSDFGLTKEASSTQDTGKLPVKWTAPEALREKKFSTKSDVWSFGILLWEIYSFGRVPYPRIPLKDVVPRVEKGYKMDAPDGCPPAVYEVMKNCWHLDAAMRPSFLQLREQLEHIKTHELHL

[5] = biological target: T1, Histone-lysine N-methyltransferase NSD3 (Homo sapiens) (UniProt Q9BZ95); details: at 10 µM
T1 sequence (whole entry): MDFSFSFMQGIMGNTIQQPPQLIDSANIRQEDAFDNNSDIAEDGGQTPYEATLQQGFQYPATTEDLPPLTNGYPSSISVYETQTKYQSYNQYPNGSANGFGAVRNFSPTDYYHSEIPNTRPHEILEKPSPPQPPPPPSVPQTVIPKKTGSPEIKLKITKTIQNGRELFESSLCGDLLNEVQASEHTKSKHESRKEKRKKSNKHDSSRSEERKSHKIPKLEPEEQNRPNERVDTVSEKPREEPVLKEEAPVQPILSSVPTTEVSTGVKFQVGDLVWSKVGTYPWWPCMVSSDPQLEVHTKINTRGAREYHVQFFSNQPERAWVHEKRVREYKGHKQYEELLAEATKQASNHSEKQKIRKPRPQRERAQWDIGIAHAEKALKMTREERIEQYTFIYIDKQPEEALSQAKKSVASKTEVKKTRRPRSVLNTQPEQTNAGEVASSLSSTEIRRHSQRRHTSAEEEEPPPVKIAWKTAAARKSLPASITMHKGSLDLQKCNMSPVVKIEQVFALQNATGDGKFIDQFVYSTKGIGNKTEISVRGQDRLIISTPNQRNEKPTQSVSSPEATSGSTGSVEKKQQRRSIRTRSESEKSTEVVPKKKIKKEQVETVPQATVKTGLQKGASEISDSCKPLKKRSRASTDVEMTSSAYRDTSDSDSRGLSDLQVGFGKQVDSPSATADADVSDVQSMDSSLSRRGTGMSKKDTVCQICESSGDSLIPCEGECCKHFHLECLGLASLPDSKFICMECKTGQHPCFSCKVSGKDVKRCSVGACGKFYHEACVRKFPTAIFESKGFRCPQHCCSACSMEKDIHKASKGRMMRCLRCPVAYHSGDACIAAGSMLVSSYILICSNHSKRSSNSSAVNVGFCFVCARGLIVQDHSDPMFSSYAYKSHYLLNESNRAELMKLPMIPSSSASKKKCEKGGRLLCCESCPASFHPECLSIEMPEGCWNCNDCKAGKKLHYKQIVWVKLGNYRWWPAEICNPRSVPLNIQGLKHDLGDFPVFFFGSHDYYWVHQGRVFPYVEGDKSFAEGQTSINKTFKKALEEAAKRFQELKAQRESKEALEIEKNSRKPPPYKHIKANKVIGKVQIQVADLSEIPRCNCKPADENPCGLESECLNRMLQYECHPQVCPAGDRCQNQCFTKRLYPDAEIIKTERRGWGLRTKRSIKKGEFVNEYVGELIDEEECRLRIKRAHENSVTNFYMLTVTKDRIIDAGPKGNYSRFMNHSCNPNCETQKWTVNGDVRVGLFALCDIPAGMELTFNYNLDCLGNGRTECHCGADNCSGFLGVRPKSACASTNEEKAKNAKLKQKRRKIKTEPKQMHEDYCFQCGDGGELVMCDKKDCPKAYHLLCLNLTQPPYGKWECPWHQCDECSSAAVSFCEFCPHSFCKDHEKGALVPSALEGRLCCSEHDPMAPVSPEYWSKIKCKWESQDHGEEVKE

[6] = biological target: T2, Activin receptor type-1B (Homo sapiens) (UniProt P36896); details: at 10 µM
T2 sequence (whole entry): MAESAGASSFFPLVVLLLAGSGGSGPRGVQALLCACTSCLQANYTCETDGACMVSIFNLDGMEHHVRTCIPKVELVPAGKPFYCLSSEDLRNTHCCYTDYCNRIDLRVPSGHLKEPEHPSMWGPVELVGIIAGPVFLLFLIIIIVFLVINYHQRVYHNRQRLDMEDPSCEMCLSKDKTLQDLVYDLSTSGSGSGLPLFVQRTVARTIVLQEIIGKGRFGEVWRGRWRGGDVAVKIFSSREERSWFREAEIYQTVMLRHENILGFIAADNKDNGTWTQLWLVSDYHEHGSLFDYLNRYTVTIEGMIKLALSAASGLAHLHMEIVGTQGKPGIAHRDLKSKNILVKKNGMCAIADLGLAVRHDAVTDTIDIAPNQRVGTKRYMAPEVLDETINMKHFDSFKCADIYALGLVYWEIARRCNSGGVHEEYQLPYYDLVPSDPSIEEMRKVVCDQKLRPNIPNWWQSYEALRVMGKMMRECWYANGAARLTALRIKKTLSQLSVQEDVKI

Ribosomal protein S6 kinase alpha-6, sequence (Q9UK32 whole entry): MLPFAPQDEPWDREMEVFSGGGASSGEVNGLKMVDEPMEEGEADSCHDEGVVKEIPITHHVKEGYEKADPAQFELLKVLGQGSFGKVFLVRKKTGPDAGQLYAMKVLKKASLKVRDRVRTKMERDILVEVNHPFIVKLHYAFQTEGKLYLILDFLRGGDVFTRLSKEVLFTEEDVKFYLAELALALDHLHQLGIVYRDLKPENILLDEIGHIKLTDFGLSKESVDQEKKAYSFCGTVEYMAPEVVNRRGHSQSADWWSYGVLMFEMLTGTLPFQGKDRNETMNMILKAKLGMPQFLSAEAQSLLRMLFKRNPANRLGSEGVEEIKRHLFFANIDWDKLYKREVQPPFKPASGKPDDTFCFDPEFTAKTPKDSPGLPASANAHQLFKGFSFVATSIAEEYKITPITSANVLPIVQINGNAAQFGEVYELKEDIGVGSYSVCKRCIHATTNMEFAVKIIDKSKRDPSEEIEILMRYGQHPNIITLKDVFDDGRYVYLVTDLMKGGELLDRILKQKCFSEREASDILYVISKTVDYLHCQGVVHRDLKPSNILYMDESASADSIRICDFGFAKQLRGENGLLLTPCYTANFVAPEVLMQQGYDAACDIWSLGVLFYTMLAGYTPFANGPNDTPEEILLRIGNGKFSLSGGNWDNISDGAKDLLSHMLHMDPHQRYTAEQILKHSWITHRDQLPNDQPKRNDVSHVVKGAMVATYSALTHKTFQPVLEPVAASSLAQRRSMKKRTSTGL
Epidermal growth factor receptor (Homo sapiens), P00533 [UNDEFINED MUTATION], sequence (P00533 whole entry, looked up, change not shown): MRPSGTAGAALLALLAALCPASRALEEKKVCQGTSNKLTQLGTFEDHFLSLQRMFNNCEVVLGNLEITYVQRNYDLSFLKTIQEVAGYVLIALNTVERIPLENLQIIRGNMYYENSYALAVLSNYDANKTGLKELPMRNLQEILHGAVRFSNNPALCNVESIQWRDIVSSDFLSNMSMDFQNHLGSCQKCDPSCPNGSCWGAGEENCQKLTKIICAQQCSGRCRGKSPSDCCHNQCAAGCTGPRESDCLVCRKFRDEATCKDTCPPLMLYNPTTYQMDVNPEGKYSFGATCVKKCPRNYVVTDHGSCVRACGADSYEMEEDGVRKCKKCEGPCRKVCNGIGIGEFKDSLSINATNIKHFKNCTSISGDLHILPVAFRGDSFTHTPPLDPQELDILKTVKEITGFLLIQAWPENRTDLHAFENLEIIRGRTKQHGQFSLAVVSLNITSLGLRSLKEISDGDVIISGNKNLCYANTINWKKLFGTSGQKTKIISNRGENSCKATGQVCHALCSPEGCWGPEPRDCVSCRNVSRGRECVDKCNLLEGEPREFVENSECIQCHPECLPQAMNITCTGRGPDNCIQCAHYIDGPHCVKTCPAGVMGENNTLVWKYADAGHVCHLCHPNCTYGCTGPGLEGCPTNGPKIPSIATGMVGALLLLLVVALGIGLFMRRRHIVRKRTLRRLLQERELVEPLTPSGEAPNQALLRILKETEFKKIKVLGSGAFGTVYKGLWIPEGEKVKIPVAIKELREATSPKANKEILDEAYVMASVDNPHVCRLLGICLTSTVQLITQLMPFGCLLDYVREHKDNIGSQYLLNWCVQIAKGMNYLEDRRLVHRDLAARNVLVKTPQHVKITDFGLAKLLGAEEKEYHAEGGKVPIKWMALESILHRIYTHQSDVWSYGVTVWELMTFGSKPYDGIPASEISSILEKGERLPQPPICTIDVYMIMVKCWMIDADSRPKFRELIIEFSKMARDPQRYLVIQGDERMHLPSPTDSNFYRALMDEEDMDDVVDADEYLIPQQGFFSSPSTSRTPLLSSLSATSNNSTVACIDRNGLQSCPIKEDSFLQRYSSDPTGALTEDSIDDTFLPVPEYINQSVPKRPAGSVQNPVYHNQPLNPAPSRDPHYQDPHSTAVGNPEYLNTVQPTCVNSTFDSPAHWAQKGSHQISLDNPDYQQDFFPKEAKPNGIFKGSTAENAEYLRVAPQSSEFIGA

C=CC(=O)Nc1cccc(C(=O)Nc2ccc(Nc3cc(-c4[nH]c(SC)nc4C)ccn3)cc2)c1
% of control [1]: 96%

Cc1cnc(Nc2ccc(F)cc2Cl)nc1-c1c[nH]c(C(=O)N[C@H](CO)c2cccc(Cl)c2)c1
% of inhibition [2]: 11%

CN(C)C/C=C/C(=O)Nc1ccc(C(=O)N2CCCC(Nc3ncc(Cl)c(-c4c[nH]c5ccccc45)n3)C2)cc1 (stereo unspecified)
% of control [3]: 93%

Nc1cnc(N2CCc3cc(S(=O)(=O)Nc4c(F)cc(Cl)cc4F)cc(N4CCCC4=O)c32)nc1 [TP-020n]
% of control [4]: 99%

CNCCN1CCC(c2cc(CN(C)C(=O)c3cccc(Oc4ccccc4)c3)ccn2)CC1
% activity [5]: > 90%

Cc1cc([C@@H](C)Nc2ccccc2C(=O)O)c2nc(N3CCOCC3)cc(=O)n2c1 [AZD-6482]
% of control [6]: 93%
